# Source: patent US9357792B2, “Fermented cereal product obtained by fermentation of rye bran with a Lactobacillus curvatus strain” (priority 2001, dated 2016)
# How the values were obtained:
# [1] = test system: H. pylori CCUG17875 binding to the Lewis b antigen; test: RIA inhibition assay: H. pylori pre-treated with product, then binding to 125I-labeled Lewis b conjugate; parameters: species or system Helicobacter pylori; conditions: pretreated with 2 mM for 1 hour; FIG. 1B
# [2] = test system: H. pylori CCUG17875 adherence to human gastric mucosa; test: H. pylori adherence in situ to histo-sections of human gastric mucosa; assay type: cell-based, Helicobacter pylori; conditions: after pretreatment with 2 mM
# Protocol: Pretreatment of strain CCUG 17875 with soluble Lewis b antigen, with L. curvatus fermented rye bran and with ferric quinate is shown. Here, bacterial binding to 10 different gastric surface epithelium regions were estimated (value p<0.001(***), value p<0.01(**), value p<0.05(*)).
# Bacterial adherence in situ was performed as described by Falk et al., 1993. Human biopsy samples of healthy gastric tissue were obtained from the Division for Gastroenterology, Norrland University Hospital, Umea, Sweden. The biopsies were taken from the antrum part of the stomach, then they were fixed in 4% buffered formalin and finally they were embedded in paraffin wax. Sections were stained with hematoxylin and eosin following standard procedures. H. pylori were first labeled with FITC, and bacterial adherence to the gastric mucous was then analyzed by the ability of L. curvatus-fermented rye-bran to inhibit bacterial adherence to re-hydrated histo-sections of human gastric epithelial cells in situ. For comparative inhibition analyzes, H. pylori was pre-incubated with Lewis b conjugate (10 μg/mL), and fermented rye-bran (1 mL) for 1 hour at room temperature. Then, as described above, the H. pylori bacterial cells were applied to the histo-sections. […]
compound,measurement,setting,value
"O=C(O)[C@]1(O)C[C@@H](O)[C@@H](O)[C@H](O)C1 [Quinic Acid, reference compound]",inhibition of H. pylori binding to the Lewis b antigen,[1],no inhibition
Ferric Quinate,inhibition of H. pylori binding to the Lewis b antigen,[1],69%
same,adherence of strain CCUG17875 to the gastric tissue section epithelium,[2],similarly much reduced
